Experimental data reported in patent US10351522B2, “Sulfonamide derivative and pharmaceutically acceptable acid addition salt thereof” (UNIVERSITY OF TSUKUBA, priority 2015, dated 2019).

Experiments:
[1] = target: T1, human OX2R (Homo sapiens, UniProt O43614); test: Agonist activity against OX2R: intracellular calcium (Fura-2AM, FDSS7000) in CHOOX2R cells; assay type: cell-based; settings: relative to orexin-A as full agonist (100%)
T1 construct: expressed in transfected cells; host or cells: CHO (Chinese hamster ovary) cells, line CHOOX2R, co-expressing NFAT-luciferase
T1 sequence (O43614 1-444): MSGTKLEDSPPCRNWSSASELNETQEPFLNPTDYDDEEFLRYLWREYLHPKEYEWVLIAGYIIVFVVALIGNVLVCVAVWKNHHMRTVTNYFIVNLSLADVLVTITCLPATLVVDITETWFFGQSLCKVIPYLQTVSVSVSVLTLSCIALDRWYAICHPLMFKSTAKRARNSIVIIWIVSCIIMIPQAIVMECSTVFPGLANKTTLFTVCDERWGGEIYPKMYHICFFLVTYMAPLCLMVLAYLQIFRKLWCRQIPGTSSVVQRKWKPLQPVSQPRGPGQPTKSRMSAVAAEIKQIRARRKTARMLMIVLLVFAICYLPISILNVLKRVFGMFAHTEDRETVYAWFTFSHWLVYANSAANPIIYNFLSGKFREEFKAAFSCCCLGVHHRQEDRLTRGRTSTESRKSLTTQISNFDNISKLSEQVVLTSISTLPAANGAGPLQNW
Description: (§1) Evaluation of Agonist Activity Against OX1R and OX2R
(§2) NAFT-luciferase gene and human OX1R gene were constitutively expressed in CHO cell, which is a cell line derived from Chinese hamster ovary to establish a cell line (CHOOX1R) and NAFT-luciferase gene and human OX2R gene were constitutively expressed in CHO cell to establish a cell line (CHOOX2R). The respective cells were seeded in a 96-well Multiplate at 10,000 cells/well and cultured in a 5% FBS (Thermo Scientific)-added DMEM medium (Sigma-Aldrich) for 48 hr. The medium was removed, an assay buffer (20 mM HEPES (Sigma-Aldrich), Hanks' balanced salt solution (Gibco), 0.1% BSA (Sigma-Aldrich), 2.5 mM probenecid acid (Wako Pure Chemical Industries, Ltd.)) (100 μL) containing 5 μM Fura-2AM (Cayman Chemical) was added, and the cells were incubated for 60 min. The buffer containing Fura-2AM was removed, and an assay buffer (75 μL) was added. An assay buffer (25 μL) containing a test compound was added thereto to start the reaction. Changes in the intracellular calcium ion concentration due to the reaction were measured by measuring the fluorescence intensity ratio by dual wavelength excitation at 340 and 380 nm, by using FDSS7000 (Hamamatsu Photonics K.K.). The test compound was dissolved in DMSO to 10 mM, and diluted with the assay buffer to a final concentration of 10^−7M to 10^−5M (final concentration of DMSO 1%).
(§3) (As used herein, Response in Table 21 to Table 27 is a value obtained by dividing the agonist activity value, when the test compound is evaluated with orexin-A as a full-agonist (maximum value of agonist activity: 100%), at 10 μM, 1.0 μM, 0.1 μM by the agonist activity value of orexin-A.)

[2] = target: T2, human OX1R (Homo sapiens, UniProt O43613); test: Agonist activity against OX1R: intracellular calcium (Fura-2AM, FDSS7000) in CHOOX1R cells; assay type: cell-based; settings: for Response (%) OX1R: relative to orexin-A as full agonist (100%)
T2 construct: expressed in transfected cells; host or cells: CHO (Chinese hamster ovary) cells, line CHOOX1R, co-expressing NFAT-luciferase
T2 sequence (O43613 1-425): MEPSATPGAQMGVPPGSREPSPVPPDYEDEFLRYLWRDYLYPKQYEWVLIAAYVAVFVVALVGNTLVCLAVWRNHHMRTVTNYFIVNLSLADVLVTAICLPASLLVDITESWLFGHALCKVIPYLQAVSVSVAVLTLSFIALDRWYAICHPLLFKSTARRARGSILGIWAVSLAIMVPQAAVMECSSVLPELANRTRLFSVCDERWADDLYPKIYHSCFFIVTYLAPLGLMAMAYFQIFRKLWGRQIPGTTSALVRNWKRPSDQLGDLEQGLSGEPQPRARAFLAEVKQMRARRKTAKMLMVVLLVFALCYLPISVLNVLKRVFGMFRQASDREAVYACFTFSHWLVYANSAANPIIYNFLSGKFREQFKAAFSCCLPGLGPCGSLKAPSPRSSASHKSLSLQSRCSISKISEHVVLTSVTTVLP
Description: as §1, §2, §3

SMILES	Response (%) OX2R ([1]; 0.1 μM test compound)	Response (%) OX2R ([1]; 1.0 μM test compound)	Response (%) OX2R ([1]; 10 μM test compound)	Response (%) OX1R ([2]; 0.1 μM test compound)	Response (%) OX1R ([2]; 1.0 μM test compound)	Response (%) OX1R ([2]; 10 μM test compound)	Response (%) OX2R ([1]; test compound 0.1 μM)	Response (%) OX2R ([1]; test compound 1.0 μM)	Response (%) OX2R ([1]; test compound 10 μM)	Response (%) OX1R ([2]; test compound 0.1 μM)	Response (%) OX1R ([2]; test compound 1.0 μM)	Response (%) OX1R ([2]; test compound 10 μM)	Emax at 0.1 µM ([2]; read-out: Response (%) OX1R)	Emax at 1 µM ([2]; read-out: Response (%) OX1R)	Emax at 10 µM ([2]; read-out: Response (%) OX1R)
COc1ccc(-c2cccc(C(=O)N(C)C)c2)cc1S(=O)(=O)Nc1cccc(NC(=O)N(C)c2cccc(N(C)C)c2)c1 [Example 127, 3′-(N-(3-(3-(3-(dimethylamino)phenyl)-3-methylureido)phenyl)sulfamoyl)-4′-methoxy-N,N-dimethyl-[1,1′-biphenyl]-3-carboxamide]	–	–	–	–	–	–	106%	90%	73%	–	–	–	< 5%	7%	56%
COc1cccc(NC(=O)Nc2cccc(NS(=O)(=O)c3cc(-c4cccc(C(=O)N(C)C)c4)ccc3OC)c2)c1 [Example 44]	100%	104%	95%	<5%	<5%	10%	–	–	–	–	–	–	–	–	–
COc1ccc(-c2cccc(C(=O)N(C)C)c2)cc1S(=O)(=O)Nc1cccc(NC(=O)c2cccc(C)c2)c1 [Example 15]	12%	81%	114%	<5%	<5%	<5%	–	–	–	–	–	–	–	–	–
COc1ccc(-c2cccc(C(=O)N(C)C)c2)cc1S(=O)(=O)Nc1cccc(NC(=O)Nc2ccccc2N(C)C)c1 [Example 41]	17%	93%	102%	<5%	<5%	<5%	–	–	–	–	–	–	–	–	–
COc1ccc(-c2cccc(C(=O)N(C)C)c2)cc1S(=O)(=O)Nc1cccc(NCc2ccccc2Br)c1 [Example 28]	6%	54%	81%	<5%	<5%	<5%	–	–	–	–	–	–	–	–	–
COc1ccc(-c2cccc(C(=O)N(C)C)c2)cc1S(=O)(=O)Nc1cccc(NCc2cccc(C)c2)c1 [Example 25]	21%	88%	97%	<5%	<5%	32%	–	–	–	–	–	–	–	–	–
COc1ccccc1C(=O)Nc1cccc(NS(=O)(=O)c2cc(-c3cccc(C(=O)N(C)C)c3)ccc2OC)c1 [Example 18]	<5%	6%	44%	<5%	<5%	15%	–	–	–	–	–	–	–	–	–
COc1ccc(-c2cccc(C(=O)N(C)C)c2)cc1S(=O)(=O)Nc1cccc(NC(=O)c2ccc3ccccc3c2)c1 [Example 9]	<5%	41%	47%	5%	6%	5%	–	–	–	–	–	–	–	–	–
COc1ccc(-c2cccc(C(=O)N(C)C)c2)cc1S(=O)(=O)Nc1cccc(NC(=O)c2cccc3ccccc23)c1 [Example 10]	14%	80%	98%	5%	6%	11%	–	–	–	–	–	–	–	–	–
COc1ccc(-c2cccc(C(=O)N(C)C)c2)cc1S(=O)(=O)Nc1cccc(NC(=O)c2ccccc2N(C)C)c1 [Example 6]	9%	17%	32%	7%	7%	6%	–	–	–	–	–	–	–	–	–
COc1ccc(CNc2cccc(NS(=O)(=O)c3cc(-c4cccc(C(=O)N(C)C)c4)ccc3OC)c2)cc1 [Example 22]	57%	61%	48%	<5%	47%	82%	–	–	–	–	–	–	–	–	–

The next lines start with results.

Response (%) OX2R ([1]; 0.1 μM test compound)	Response (%) OX2R ([1]; 1.0 μM test compound)	Response (%) OX2R ([1]; 10 μM test compound)	Response (%) OX1R ([2]; 0.1 μM test compound)	Response (%) OX1R ([2]; 1.0 μM test compound)	Response (%) OX1R ([2]; 10 μM test compound)	Response (%) OX2R ([1]; test compound 0.1 μM)	Response (%) OX2R ([1]; test compound 1.0 μM)	Response (%) OX2R ([1]; test compound 10 μM)	Response (%) OX1R ([2]; test compound 0.1 μM)	Response (%) OX1R ([2]; test compound 1.0 μM)	Response (%) OX1R ([2]; test compound 10 μM)	SMILES	Emax at 0.1 µM ([2]; read-out: Response (%) OX1R)	Emax at 1 µM ([2]; read-out: Response (%) OX1R)	Emax at 10 µM ([2]; read-out: Response (%) OX1R)
82%	97%	100%	<5%	<5%	<5%	–	–	–	–	–	–	COC(=O)c1cccc(NC(=O)Nc2cccc(NS(=O)(=O)c3cc(-c4cccc(C(=O)N(C)C)c4)ccc3OC)c2)c1 [Example 45]	–	–	–
–	–	–	–	–	–	64%	99%	106%	<5%	<5%	6%	COc1ccc(-c2cccc(C(=O)N(C)C)c2)cc1S(=O)(=O)Nc1cccc(N2CCN(c3cccc(N(C)C)c3)C2=O)c1 [Example 130]	–	–	–
26%	89%	92%	<5%	<5%	<5%	–	–	–	–	–	–	COc1ccc(-c2cccc(C(=O)N(C)C)c2)cc1S(=O)(=O)Nc1cccc(NC(=O)Nc2cccc(C(=O)N(C)C)c2)c1 [Example 49]	–	–	–
<5%	<5%	63%	<5%	<5%	<5%	–	–	–	–	–	–	COc1ccc(-c2cccc(C(=O)N(C)C)c2)cc1S(=O)(=O)Nc1cccc(NC(=O)Nc2ccc(NC(=NC(=O)OC(C)(C)C)NC(=O)OC(C)(C)C)cc2)c1 [Example 58]	–	–	–
–	–	–	–	–	–	<5%	16%	44%	<5%	<5%	<5%	Cc1ccc(-c2cccc(C(=O)N(C)C)c2)cc1S(=O)(=O)Nc1cccc(NC(=O)Nc2cccc(N(C)C)c2)c1 [Example 117]	–	–	–
–	–	–	–	–	–	19%	14%	76%	8%	8%	9%	COc1ccc(-c2cccc(C(=O)N(C)C)c2)cc1S(=O)(=O)Nc1cccc(N)c1 [Example 99]	–	–	–
<5%	<5%	14%	<5%	<5%	<5%	–	–	–	–	–	–	COc1ccc(-c2cccc(C(=O)N(C)C)c2)cc1S(=O)(=O)Nc1cccc(NC(=O)Nc2cccc(C(=O)O)c2)c1 [Example 48]	–	–	–
–	–	–	–	–	–	7%	7%	10%	<5%	<5%	<5%	COc1ccc(-c2cccc(C(=O)N(C)C)c2)cc1S(=O)(=O)Nc1ccc(NC(=O)Nc2cccc(N(C)C)c2)cc1 [Example 122]	–	–	–
–	–	–	–	–	–	7%	9%	80%	<5%	<5%	<5%	COc1ccc(C(=O)NCC(C)(C)CN(C)C)cc1S(=O)(=O)Nc1cccc(NC(=O)Nc2cccc(N(C)C)c2)c1 [Example 107]	–	–	–
24%	105%	99%	<5%	<5%	7%	–	–	–	–	–	–	COc1ccc(-c2cccc(C(=O)N(C)C)c2)cc1S(=O)(=O)Nc1cccc(NC(=O)Nc2ccc([N+](=O)[O-])cc2)c1 [Example 61]	–	–	–
